Experimental data published in patent publication US20110021554A1, “IMMUNE RESPONSE MODIFIER FORMULATIONS AND METHODS” (priority 2004, published 2011).

Experiment: Effect of sodium chloride on solubility of the drug
Type: physicochemical
Settings: apparently due to salt formation

Solubility of the drug in presence of sodium chloride: reduces solubility of the drug
SMILES: CCc1nc2c(N)nc3ccccc3c2n1CCCCNS(C)(=O)=O [N-[4-(4-amino-2-ethyl-1H-imidazo[4,5-c]quinolin-1-yl)butyl]methanesulfonamide]
